Reference: ChEMBL document CHEMBL1201862, “PubChem BioAssay data set” (2004)
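Compound exposure: 48 hours, 5 concentrations, 96-well plates. Here, GI50 denotes the concentration required for 50% inhibition of growth.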 Activity calls are given as the source filed them. Rule as the data show it: active = GI50 up to about 1.1 µM and inactive = higher.

Tests used:
Assay in all cases: inhibition of tumour cell growth, NCI panel, 48 h
[1] = test system: 786-0
[2] = test system: A498
[3] = test system: A549
[4] = test system: ACHN
[5] = test system: BT-549
[6] = test system: CAKI-1
[7] = test system: CCRF-CEM
[8] = test system: COLO 205
[9] = test system: DU-145
[10] = test system: EKVX
[11] = test system: HCC 2998
[12] = test system: HCT-116
[13] = test system: HCT-15
[14] = test system: HL-60
[15] = test system: HOP-62
[16] = test system: HOP-92
[17] = test system: HT-29
[18] = test system: Hs-578T
[19] = test system: IGROV-1
[20] = test system: K562
[21] = test system: KM12
[22] = test system: LOX IMVI
[23] = test system: M14
[24] = test system: MCF7
[25] = test system: MDA-MB-231
[26] = test system: MDA-MB-435
[27] = test system: MDA-N
[28] = test system: MOLT-4
[29] = test system: Malme-3M
[30] = test system: NCI-H226
[31] = test system: NCI-H23
[32] = test system: NCI-H460
[33] = test system: NCI-H522
[34] = test system: NCI/ADR-RES
[35] = test system: OVCAR-3
[36] = test system: OVCAR-4
[37] = test system: OVCAR-5
[38] = test system: OVCAR-8
[39] = test system: PC-3
[40] = test system: RPMI-8226
[41] = test system: RXF 393
[42] = test system: SF-268
[43] = test system: SF-295
[44] = test system: SF-539
[45] = test system: SK-MEL-28
[46] = test system: SK-MEL-2
[47] = test system: SK-MEL-5
[48] = test system: SK-OV-3
[49] = test system: SN12C
[50] = test system: SNB-19
[51] = test system: SNB-75
[52] = test system: SR
[53] = test system: SW-620
[54] = test system: T47D
[55] = test system: TK-10
[56] = test system: U-251
[57] = test system: UACC-257
[58] = test system: UACC-62
[59] = test system: UO-31
[60] = test system: DLD-1
[61] = test system: SNB-78
[62] = test system: DMS-273
[63] = test system: LXFL 529
[64] = test system: M19-MEL

Measured: GI50

c1csc(-c2cscc2-c2ccsc2)c1
30.3 µM: [13]
inactive: [1] > 63.1 µM | [2] > 96.8 µM | [3] 47.9 µM | [4] > 83.9 µM | [5] > 100 µM | [6] > 95.3 µM | [7] 41.8 µM | [8] > 100 µM | [9] > 100 µM | [10] 41.2 µM | [11] 28.4 µM | [12] 41.2 µM | [14] 30.5 µM | [15] 42.3 µM | [16] > 86.5 µM | [17] > 84.9 µM | [18] 20.4 µM | [19] 68.9 µM | [20] 31.6 µM | [21] 32.1 µM | [22] 41.1 µM | [23] 54.1 µM | [24] 30.6 µM | [25] > 100 µM | [26] 25.5 µM | [27] 33.3 µM | [28] 26.2 µM | [29] 20.9 µM | [30] > 43.5 µM | [31] 35.3 µM | [32] 62.2 µM | [33] 22.2 µM | [34] 48.1 µM | [35] 18.4 µM | [36] 44.5 µM | [37] > 69.2 µM | [38] 98.2 µM | [39] > 43.8 µM | [40] 34 µM | [41] 20.9 µM | [42] 75 µM | [43] > 66.8 µM | [44] > 53.2 µM | [45] > 100 µM | [46] 52.2 µM | [47] 75.9 µM | [48] 47.4 µM | [49] > 86.1 µM | [50] > 57.5 µM | [51] > 52.1 µM | [52] 26.6 µM | [53] 62.2 µM | [54] > 55.1 µM | [55] > 100 µM | [56] > 100 µM | [57] > 94.4 µM | [58] 70.3 µM | [59] > 70.8 µM

COc1ccc2c3c(c4cc(OC)c(OC)cc4c2c1)C[C@H]1CCCCN1C3 [CRYPTOPLEURINE]
active: [60] 0.005 µM | [12] 0.005 µM | [17] 0.005 µM | [22] 0.005 µM | [24] 0.005 µM | [36] 0.005 µM | [38] 0.005 µM | [48] 0.005 µM | [61] 0.005 µM | [56] 0.005 µM

Cc1ccc2c3ccc4c(c3n(C)c2c1)C(=O)C=CC4=O
4.6 µM: [13]
inactive: [1] 2.33 µM | [2] > 10 µM | [3] > 10 µM | [4] 3.51 µM | [5] 3.32 µM | [6] 3.36 µM | [8] 2.5 µM | [9] > 10 µM | [10] > 10 µM | [11] > 10 µM | [12] 2.33 µM | [15] > 10 µM | [16] 3.1 µM | [17] > 10 µM | [18] > 10 µM | [19] > 10 µM | [21] > 10 µM | [22] > 10 µM | [23] 3.66 µM | [24] 3.29 µM | [25] 3.97 µM | [26] 5.86 µM | [27] 4.94 µM | [29] 2.58 µM | [30] > 10 µM | [31] > 9.23 µM | [32] > 10 µM | [33] 2.95 µM | [34] > 5.89 µM | [35] 2.52 µM | [36] > 5.12 µM | [37] > 10 µM | [38] 4.47 µM | [39] > 10 µM | [40] 2.39 µM | [41] 4.25 µM | [42] > 10 µM | [43] > 10 µM | [44] > 5.98 µM | [45] > 6.01 µM | [46] 9.95 µM | [47] > 10 µM | [48] > 10 µM | [49] > 10 µM | [50] > 10 µM | [51] > 10 µM | [52] 1.42 µM | [53] 1.74 µM | [54] 2.43 µM | [55] 4.82 µM | [56] > 10 µM | [57] 6.67 µM | [58] > 8.22 µM | [59] > 10 µM
active: [7] 0.335 µM | [14] 1.04 µM | [20] 1.03 µM | [28] 0.475 µM

COc1cc(C2c3cc4c(cc3[C@@H](Nc3ccc(C(=O)O)cc3)C3COC(=O)[C@H]23)OCO4)cc(OC)c1O (some centres undefined)
7.5 µM: [13]
inactive: [3] > 17.5 µM | [6] 5.93 µM | [7] 2.56 µM | [62] 5.65 µM | [10] > 17.5 µM | [12] 14.5 µM | [14] 3.24 µM | [15] 6.11 µM | [16] 4.81 µM | [17] 11.1 µM | [22] 2.42 µM | [63] 5.82 µM | [23] 12.6 µM | [64] 10 µM | [29] 8.55 µM | [30] 4.47 µM | [31] 7.74 µM | [32] 2.01 µM | [35] 14.7 µM | [36] 11 µM | [41] 10.5 µM | [42] 10.8 µM | [43] 8.85 µM | [44] 4.7 µM | [45] > 17.5 µM | [46] 16.6 µM | [47] 9.77 µM | [49] > 17.5 µM | [50] 6.11 µM | [51] 6.58 µM | [61] 5.78 µM | [57] > 17.5 µM | [58] 9.82 µM | [59] > 17.5 µM
active: [28] 0.546 µM
